Source: patent US20040001834A1, “Phospholipase A2 enzyme, antibodies and inhibitors thereto” (priority 2002, published 2004)
Entries after “also recorded” stand apart in the source; their conditions may differ.

Columns and labels:
rPLA2 = rPLA2 enzyme activity assay with 2-[1-14C]AA-GPC substrate in the presence of inhibitors or divalent metal ions; assay type: biochemical, bovine; details: for inhibition of rPLA2 activity: substrate 2-[1-14C]AA-GPC, 10 min; for effect on rPLA2 activity compared with cPLA2: comparison rPLA2 versus cPLA2
Experimental: To verify the effect of known inhibitors on the activity of rPLA2, the various concentrations of inhibitors, i.e., DTT (dithiothtreitol), AACOCF3 (arachidonylfluoromethyl ketone) known as the cPLA2 inhibitor, mepacrine and methyl mercury, mercuric chloride known as the sPLA2 inhibitors were added to active pool from Mono Q column and reacted 2-[1-^14C]-AA-GPC as a substrate for 10 min. The comparative groups, cPLA2 and sPLA2, were subjected to in a same procedure.
To verify the effect of divalent metal ions on enzyme activity, to rPLA2 activity, various concentrations of divalent metal i.e., Zn^2+, Fe^2+, Cu^2+, Sr^2+, Ba^2+, Mn^2+ and Mg^2+ were added to active pool from Mono Q column and reacted 2-[1-^14C]-AA-GPC as a substrate for further 10 min. The comparative groups, cPLA2 and sPLA2, were subjected to in a same procedure.
To measure the functions of rPLA2 using inventive antibody, the supernatant obtained from above procedure was adopted to analyze the activity. PLA2 activity was measured in an assay system (100 μl) of 75 mM Tris-HCl (pH 7.5) containing […] of 2-[1-^14C]AA-GPC (110,000 cpm/4.5 nmol) mixed with 2-[1-^14C]AA-GPC, 4% glycerol, 5 mM CaCl2 and 0.2 % BSA.
Prepared rPLA2 and cPLA2 and each inhibitor dissolved in 5 μl of DMSO solution was added and reacted for 10 min at 37° C. maintaining the temperature. 2-[1-^14C]AA-PC as a substrate was added and reacted for 10 min at 37° C. maintaining the temperature.
To verify the mechanism of inhibition, Dixon plot was constructed (FIG. 31).

bovine RBCs = assay: [3H]AA release from labeled bovine RBCs; assay type: cell-based; details: for inhibition of AA release by A23187 in bovine RBC: 50 μM of EA4, 20 min, then 2 μM A23187, 37 °C
Experimental: (§1) Human venous blood was collected in heparin (40 unit/ml) from some healthy volunteers among the Korean graduate students in our laboratory and bovine blood freshly collected in heparin (40 unit/ml) in a local slaughterhouse. After blood was centrifuged at 500×g for 20 min, the resulting supernatants of the platelet-rich plasma, the buffy coat and the leading edge of the packed RBCs were completely removed by aspiration. Sedimented RBCs, leukocytes, and platelets were re-suspended in a sterile buffer (50 mM Tris-HCl, pH 7.5, 1 mM EDTA, 0.12 M NaCl). This centrifugation and aspiration cycle was repeated six times taking care of removing leukocytes and platelets and the top 10% of the RBCs suspensions. Washed cell suspensions (10 ml) were subsequently depleted of residual leukocytes and platelets by filtration through a Sepharose 4B-200 column (20×2.5 cm) pre-equilibrated with sterile saline (0.9% w/v NaCl) as described above.
(§2) The Sepharose 4B-200 column-purified RBCs suspensions (approximately 1×10^9 cells/ml) were twice washed with serum-free MEM containing 1 mg/ml of fatty acid-free bovine serum albumin (BSA) and labeled for 1 hr with 1.5 mCi [^3H]AA (1 mCi/0.1 ml ethanol)/ml of the same medium. Murine L929 cells (1-2×10^6 cells/ml) were labeled for 6 hrs with 1.5 mCi [^3H]AA (1 mCi/0.1 ml ethanol)/ml of the same medium. Thereafter, cells were washed three times to remove all unincorporated [^3H]AA. […]
(§3) For analysis of [^3H] AA release, at each time of 0, 10, 30, 60 and 90 min after reaction between the cell and A23187, the RBCs were centrifuged as above, and each aliquot (200 μl) of the supernatants for the RBCs and each aliquot (100 μl ) of the conditioned media for the L929 cells was transferred to 2.5 ml of the scintillation counting solution and counted for radioactivity with a Packard Tri-carb liquid β-scintillation counter (Packard Instrument Co., Meriden, Conn.). […]
(§4) Cells were collected and centrifuged at the interval of 10 min. And the radioactivity was measured by scintillation counter.

cPLA2 = cPLA2 enzyme activity assay with inhibitors (comparative group); assay type: biochemical, porcine; details: substrate 2-[1-14C]AA-PC, 10 min, 37° C.
Excerpt: Stearoyl-2-[1-^14C]arachidonyl-sn-glycerol-3-phosphocholine (2-[1-^14C]AA-GPC) (55.3 mCi/mmol), 1-palmitoyl-2-[1-^14C]palmitoyl-sn-glycerol-3-phosphocholine (2-[1-^14C]PA-GPC) (55.6 mCi/mmol), 1-palmitoyl-2-[1-^14C]linoleoyl-sn-glycerol-3-phosphocholine (2-[1-^14C]LA-GPC) (55.9 mCi/mmol), 1-acyl-2-[1-^14C]arachidonyl-sn-glycerol-3-phosphoethanolamine (2-[1-^14C]AA-GPE) (55.1 mCi/mmol) and [^3H]arachidonic acid (AA) (204 Ci/mmol) ([^3H]AA) were purchased from the radio-chemical center, Amersham Life Science Ltd. (Buckinghamshire, UK). 1-Stearoyl-2-arachidonyl-sn-glycerol-3-phosphocholine (2-AA-GPC), dithiothreitol (DTT), A23187, 3,3′-diaminobenzidine (DAB), methylcellulose, erythropoietin and Sepharose 4B-200 gel filtration column were purchased from Sigma Co. (St. Louis, Mo.). Anti-human secretory 14 kDa sPLA2 antibody was purchased from Upstate Biotechnology, Inc. (Lake Placid, N.Y.). Goat anti-rabbit- and anti-mouse-alkaline phosphatase conjugates were purchased from Santa Cruz Biotechnology Inc., Santa Cruz, Calif. Group IV cytosolic PLA2 (cPLA2) was purified from porcine spleen and anti-cPLA2 polyclonal antibody was generated as described above(Kim, D. K., and Bonventure, J. V., Biochem. J., 294, 261-270, 1993). Group II secretory PLA2 (sPLA2) was partially purified from bovine platelets as described above (Hara, S et al., J. biochem., 105, 395-399, 1989). […]

L929 cells = assay: [3H]AA release from labeled L929 cells; assay type: cell-based, murine; details: 50 μM of EA4, 20 min, then 2 μM A23187, 37 °C
Experimental: The Sepharose 4B-200 column-purified RBCs suspensions (approximately 1×10^9 cells/ml) were twice washed with serum-free MEM containing 1 mg/ml of fatty acid-free bovine serum albumin (BSA) and labeled for 1 hr with 1.5 mCi [^3H]AA (1 mCi/0.1 ml ethanol)/ml of the same medium. Murine L929 cells (1-2×10^6 cells/ml) were labeled for 6 hrs with 1.5 mCi [^3H]AA (1 mCi/0.1 ml ethanol)/ml of the same medium. Thereafter, cells were washed three times to remove all unincorporated [^3H]AA. The labeled cells were incubated in MEM containing 1 mg/ml BSA as a trap for the released [^3H]AA and then stimulated with vehicle (0.1 μl ethanol/ml medium) or 2 μM of calcium ionophore A23187 at 37° C. And a control group is treated with vehicle only without A23187 compound.
as §3, §4

human RBCs = assay: [3H]AA release from labeled human RBCs; assay type: cell-based; details: for inhibition of AA release by A23187 in human RBC: 50 μM of EA4, 20 min, then 2 μM A23187, 37 °C
Experimental: as §1, §2, §3, §4

[1] = 2 μM A23187, 37° C., 0-90 min, time-dependent

O[C@H](CS)[C@H](O)CS (racemic) [DTT, dithiothreitol, reference compound]
inhibition of rPLA2 activity (rPLA2): not inhibited

[Fe+2] [Fe^2+]
activation of rPLA2 activity by divalent metal cation (rPLA2): activated

[Zn+2] [Zn^2+]
activation of rPLA2 activity by divalent metal cation (rPLA2): activated

[CH3][Hg][Cl] [methyl mercury, reference compound]
effect on rPLA2 activity compared with cPLA2 (rPLA2): less effective activity than cPLA2
inhibition of rPLA2 activity (rPLA2): not inhibited

CCN(CC)CCCC(C)Nc1c2ccc(Cl)cc2nc2ccc(OC)cc12 (stereo not drawn) [mepacrine, reference compound]
inhibition of rPLA2 activity (rPLA2): not inhibited

[Sr+2] [Sr^2+]
activation of rPLA2 activity by divalent metal cation (rPLA2): activated

CC(C)(C)c1cc(C2=C(Cl)C(=O)c3ccccc3C2=O)cc(C(C)(C)C)c1O [TP1, 2-(3,5-Di-tert-butyl-4-hydroxyphenyl)-3-chloro-1,4-naphthalene dione, reference compound]
inhibition of AA release by A23187 in bovine RBC (bovine RBCs): not inhibited
inhibition of cPLA2 activity (cPLA2): inhibited
inhibition of rPLA2 activity (rPLA2): inhibited that of cPLA2 only; also recorded: not inhibited
inhibition of AA release in L929 cells (L929 cells): inhibited
inhibition of AA release by A23187 in human RBC (human RBCs): not inhibited

CNc1ccc2oc(C[C@H]3O[C@@]4(CC[C@H]3C)O[C@H]([C@H](C)C(=O)c3ccc[nH]3)[C@H](C)C[C@H]4C)nc2c1C(=O)O [A23187, reference compound]
release of [3H]AA from bovine RBCs (bovine RBCs; [1]): released
release of [3H]AA from human RBCs (human RBCs; [1]): released

[Mg+2] [Mg^2+]
activation of rPLA2 activity by divalent metal cation (rPLA2): activated

[Cl][Hg][Cl] [mercuric chloride, reference compound]
effect on rPLA2 activity compared with cPLA2 (rPLA2): different profile from cPLA2
inhibition of rPLA2 activity (rPLA2): not inhibited

[Mn+2] [Mn^2+]
activation of rPLA2 activity by divalent metal cation (rPLA2): activated

[Ba+2] [Ba^2+]
activation of rPLA2 activity by divalent metal cation (rPLA2): activated

[Cu+2] [Cu^2+]
activation of rPLA2 activity by divalent metal cation (rPLA2): activated

CCN(CC)c1ccc(C2=C(Cl)C(=O)c3ncccc3C2=O)cc1 [EA4, 7-chloro-6-[4-(diethylamine)phenyl]-5,8-quinolinedione]
inhibition of AA release by A23187 in bovine RBC (bovine RBCs): significantly inhibited; also recorded: inhibits the release
inhibition of cPLA2 activity (cPLA2): inhibited; also recorded: inhibits the activity of cPLA2
inhibitory pattern on rPLA2 (rPLA2; Dixon plot): competitive; also recorded: competitively
Ki (rPLA2; Dixon plot, competitive inhibition, read-out: inhibition constant (Ki) for rPLA2): 130 µM
inhibition of rPLA2 activity (rPLA2): inhibited
inhibition of AA release in L929 cells (L929 cells): inhibited
inhibition of AA release by A23187 in human RBC (human RBCs): significantly inhibited
